Where two headings read alike, the source gives them in different places.
Experiments:
TEM-1 = target: T1, TEM-1 (Escherichia coli, UniProt P62593); assay: thermal denaturation with right-angle/static light scattering (aggregation) in presence of beta-lactamase inhibitors; format: biochemical, E. coli; conditions: TEM-1, dose titration of inhibitor
T1 construct: DNA TEM (870 bp) or SHV (894 bp) were each sub-cloned into a PUC57 vector cloning site NdeI/XhoI; His-tag (N); TEV cleavage site (N); made in house; host or cells: E. coli BL21 (DE3)
Text: (FIG. 1E) Heat denaturation of TEM-1 monitored by intrinsic fluorescence plotted as the BaryCentric Mean (BCM) of the fluorescence emission spectrum in the presence (red) and absence (blue) of tazobactam. […] (FIG. 1F) Temperature-dependent evolution of the Right-Angle Light Scattering (RALS) intensity measured simultaneously with the data in FIG. 1G to monitor protein aggregation. […] (FIGS. 1G, 1H, 1I, and 1J) Same data as in FIG. 1F, but showing a dose-titration of different beta-lactamase inhibitors: tazobactam (FIG. 1G), clavulanate (FIG. 1H), vaborbactam (FIG. 1I) and avibactam (FIG. 1J). Each curve a single experiment, which was repeated in triplicate.
Then, we performed a thermal denaturation whilst simultaneously monitoring the intrinsic fluorescence as a measure of the folding status of the molecule (FIG. 1E), and the static light scattering as a measure of aggregation (FIG. 1F).

E. coli UZ_TEM104 = assay: FACS analysis with Propidium Iodide and pFTAA; format: cell-based; conditions: 400 μg/mL penicillin G only, 4 h
Procedure: (§1) FIGS. 3A-3P. […] Three replicates are shown for each condition. […] A single representative image is shown. […] Three replicates are shown for each condition. (FIG. 3E) [Left] […] [Middle] […] [Right] […] A single representative image is shown. […] A single representative image is shown. […] A single representative image is shown. […] A single representative blot is shown. […] 106 cells were analysed for the plot.
First, we tested the assay using a mixture of live and heat inactivated (FIG. 3L) or just live bacteria (FIG. 3M), showing that heat inactivated, but not live bacteria are stained with PI, and neither are stained with pFTAA.
Bacterial cells in the cleaned suspensions were stained with both propidium iodide (PI) and FITC peptide to evaluate the killing rate and peptide uptake in a two-dimensional analysis. […] Treated bacteria washed with PBS buffer two times. One microliter of PI (Invitrogen) was added to the bacteria and incubated for 5 min. The bacteria were used by FACS tubes for 40000 events. To correlate the activity of the peptides with cell death, the fluorescence intensity was measured in two channels using the Gallios™ Flow Cytometer (Beckman Coulter, USA), PI: excitation 536 nm and emission 617 nm, FITC: excitation 490 nm and emission 525 nm. Heated bacteria at 90° C. for 10 min were used as PI-positive control.

E. coli strain UZ_TEM104 [1] = format: cell-based
E. coli strain UZ_TEM104 [2] = format: cell-based; conditions: peptide alone
Text: In order to generate a synthetic amyloid peptide capable of inactivating the TEM-1 beta-lactamase enzyme by capitalizing on its aggregation propensity, we applied a previously developed design pattern for synthetic aggregating sequences. This involves a tandem repeat of the APR, each instance flanked by charged amino acids for solubility and separated by a short peptide linker^19,20,23 (FIG. 2G). Previous work has shown that good bacterial uptake can be achieved using one positively charged arginine residue on the N-terminal side of each APR in the tandem and two arginine residues on the C-terminal side. This has the additional benefit of reducing the self-aggregation of the peptides and increasing their solubility prior to target engagement. As before, we employed a single Pro residue as a linker between the APRs and focused on an APR length of seven, extending shorter APRs to this length by incorporating flanking amino acids unless they were obvious aggregation breakers (Arg, Lys, Asp, Glu or Pro, see Table 1). We obtained these peptides from solid phase synthesis, followed by HPLC purification to a purity judged by reverse phase chromatography of at least 90% (Genscript).
Determination of MIC values using the broth microdilution in the 96-well plate (BD Biosciences, Belgium) according to the EUCAST guideline, which was performed in 96-well polystyrene flat bottom microtiter plates (BD Biosciences). Briefly, a single colony was inoculated into 5 mL Difco™ Mueller Hinton Broth (BD Biosciences Ref 275730) and grown to the end-exponential growth phase in a shaking incubator at 37° C. Cultures were subsequently diluted to an MacFarland (0.5 optical density) then the culture was diluted to reach 10^6 CFU/mL in fresh MHB medium. 50 μl of different concentration of peptides ranging from 128 to 2 μg/mL were serially diluted to the sterile 96-well plate in MHB. 50 μL of the diluted bacteria in MHB were pipetted into 96-well plates to reach the final volume of 100 μL. The bacteria grown with the maximum concentration of carrier and medium were considered as positive and negative controls, respectively. The plates were statically incubated overnight at 37° C. to allow bacterial growth. OD was measured at 590 nm a multipurpose ultraviolet-visible plate reader, and the absorbance of the growth bacteria was measured using absorbance reader. Bacterial growth was also visually inspected and agreed well with the OD reading.

E. coli TEM-104 = assay: checkerboard assay (FICI), peptide versus penicillin G; format: cell-based; conditions: strain with TEM; FICI below 0.5 = synergy
Text: (§2) FIGS. 2A-2M. (FIG. 2A) TEM mutations and their effects on stability (total energy) as predicted by FoldX. […] Dashed line indicates a total energy difference of 0.5 kcal/mol, the FoldX cut-off above which mutations are considered to be destabilizing. (FIG. 2B) Barplot mapping mutations in (FIG. 2A) to the TEM sequence and indicating occurrence. […] The bar heights correspond to the number of times a mutation occurs across different TEM variants (right-hand y-axis). The color coding is identical to that in (FIG. 2A). Red line indicates the TANGO scores (indicated on the left-hand y-axis), with peaks corresponding to APRs. (FIG. 2C) Mapping of mutations in (FIG. 2A) and (FIG. 2B) to the TEM structure (pdb 1xpb). Protein surface is shown in gray, color coding of mutations is identical to (FIG. 2A) and (FIG. 2B). (FIGS. 2D, 2E, and 2F) Temperature-dependent evolution of the Right-Angle Light Scattering (RALS) intensity during a temperature ramp, similar as in FIG. 1F for key mutants of TEM1, namely TEM-10 (FIG. 2D), TEM-30 (FIG. 2E) and TEM-155 (FIG. 2F). Experiments were shown in triplicate, single repeat is shown. (FIG. 2G) Schematic representation of the structure of the peptides. APR—Aggregation Prone Region, R—Arginine. (FIG. 2H) Ribbon representation of the superposition of the crystal structures of TEM (green, pdb id 1bt5) and SHV (blue, pdb id 1shv). The catalytic site of the beta-lactamase activity is indicated and location of APR3 is shown in red. (FIG. 2I) TANGO aggregation score and alignment of APR3 in TEM and SHV. (FIG. 2J) Fractional Inhibitory Concentration Index determination of 5 peptides versus penicillin on E. coli TEM-104. […] FICI values below 0.5 indicate synergy. Values between 0.5 and 1.0 indicate additivity and values greater than 1 indicate indifference between the combined substances. (FIG. 2K) Same as J for E. coli SHV-11. (FIG. 2L) Same as J for a kanamycin resistant E. coli strain. (FIG. 2M) FICI values for the TEM3.2 peptide on a range of E. coli strains.
(§3) Moreover, the core sequence of peptide TEM3.0 also occurs in the structurally related SHV β-lactamase ([…]). Although the C-terminal extension residues H and N have been replaced with physicochemically similar R and Q, respectively (FIG. 2H). […] To quantify the synergy between these four peptides and penicillin G, we performed a so-called checkerboard assay, which allows to compare the activity of two test compounds co-incubated (here peptide and a beta-lactam antibiotic), to their individual activities in isolation. The result from the assay is quantified as the Fractional Inhibitory Concentration Index (FICI), and it is generally accepted that values below 0.5 indicate synergistic effects between the compounds. As a control, we generated a peptide using the same design, but based on a previously identified APR from the β-galactosidase enzyme (BGAL)^16 from E. coli (APR=SVIIWSL, peptide sequence=[…]) that has a MIC value>100 μg/mL on E. coli strain UZ_TEM104. We evaluated the synergy of the peptides with penicillin G in clinical E. coli isolates carrying the TEM ([…]) or SHV enzymes ([…]). […] As a further control, we also performed a checkerboard assay with an E. coli strain that was resistant to the aminoglycoside kanamycin and observed no synergy between this unrelated antibiotic and our peptides (FIG. 2L), in line with the notion that we are inhibiting a beta-lactamase but not the aminoglycoside degrading enzyme. […] The list of strains included some that harbored only TEM or SHV, but others contained additional Ambler Class A (CTX-M or […]) or Class B (VIM and NDM) beta-lactamases. […] In contrast, the presence of the NDM-type […], that does have a high affinity for Ampicillin and that is completely distinct in sequence and structure from TEM and SHV, seemed to completely prevent the effect of the peptide on the beta-lactam sensitivity of the strains in which it occurred (see also further). […]

E. coli SHV-11 = assay: as above; format: cell-based; conditions: strain with SHV-11; FICI below 0.5 = synergy
Text: as §2, §3

[3] = tested on: TEM beta-lactamase in E. coli UZ_TEM104; assay: western blot of inclusion body (IB) fraction for TEM; format: cell-based; conditions: 12 μM peptide in PBS, 120 min
Procedure: as §1
(§4) Moreover, we confirmed the presence of the protein in the correct band using mass spectrometry proteomics. We repeated this with a strain expressing SHV-154, blotting with a polyclonal rabbit antibody raised against the recombinant SHV enzyme described above (FIG. 3K).
(§5) The overnight culture of bacteria was centrifuged for 30 min at 4,000×g and cells were washed with physiological water (NaCl 0.9%). Bacterial cells were treated by peptide at the appropriate concentration for at least 2 h at 37 C. The bacterial pellets were washed with 10 mL buffer A (50 mM HEPES, pH 7.5, 300 mM NaCl, 5 mM β-mercaptoethanol, 1.0 mM EDTA) and centrifuged at 4° C. for 30 min at 4,000×g. The supernatant was discarded and 20 mL of buffer B (buffer A plus 1 tablet of the protease and phosphatase Inhibitor Cocktail (ab201119, Abcam, UK) was added to the bacterial pellet. In order to break the cells, a High-Pressure Homogenizer (Glen Creston Ltd) with the pressure set to 20,000-25,000 psi was used on ice, and in addition, the suspensions were sonicated (Branson Digital sonifier 50/60 Hz) on ice with alternating 2 min cycle (15 pulses at 50% power with 30 s pauses on ice, until completing 2 min total sonication time). The lysed cells were centrifuged at 4° C. for 30 min at 11,000×g. The precipitated fraction was afterward re-suspended with 10 mL buffer D (buffer A plus 0.8% (V/V) Triton X-100, 0.1% sodium deoxycholate) and the suspension was sonicated to ensure the pellet is completely dissolved. This step was repeated three times. Centrifugation was performed at 4° C. for 30 min at 11,000×g. Finally, to solubilize IBs, the pellet was suspended in 500 ul of buffer F (50 mM HEPES, pH 7.5, 8.0 M urea) of precipitated fraction.

[4] = tested on: SHV beta-lactamase in strain expressing SHV-154; assay: western blot of inclusion body (IB) fraction for SHV; format: cell-based, E. coli; conditions: 12 μM peptide in PBS, 120 min
Procedure: as §1, §4, §5

T1 sequence (P62593 24-286 limits assumed): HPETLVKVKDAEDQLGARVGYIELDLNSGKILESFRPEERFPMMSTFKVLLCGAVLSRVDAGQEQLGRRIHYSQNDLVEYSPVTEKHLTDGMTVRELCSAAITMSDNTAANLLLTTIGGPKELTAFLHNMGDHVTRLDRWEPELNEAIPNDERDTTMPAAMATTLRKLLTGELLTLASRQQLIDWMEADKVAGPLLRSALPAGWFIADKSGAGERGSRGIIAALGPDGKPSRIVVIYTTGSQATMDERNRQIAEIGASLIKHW

## NC(=O)[C@@H]1CC[C@@H]2CN1C(=O)N2OS(=O)(=O)O [avibactam]
TEM-1
  aggregation of the enzyme (static light scattering), dose-response: reduce the aggregation of the enzyme in a dose-responsive manner

## O=C(O)[C@H]1/C(=C/CO)O[C@@H]2CC(=O)N21 [clavulanate]
TEM-1
  aggregation of the enzyme (static light scattering), dose-response: reduce the aggregation of the enzyme in a dose-responsive manner

## CC1(C)S[C@@H]2[C@H](NC(=O)Cc3ccccc3)C(=O)N2[C@H]1C(=O)O [penicillin G, Benzylpenicillin sodium]
E. coli UZ_TEM104
  change in PI (cell death) and pFTAA (aggregation) channels: no major change in either channel
E. coli strain UZ_TEM104 [1]; penicillin alone, buffer, additive 0 μg/mL
  MIC penicillin: 1600 µg/mL

## O=C(O)C[C@@H]1CC[C@H](NC(=O)Cc2cccs2)B(O)O1 [vaborbactam]
TEM-1
  aggregation of the enzyme (static light scattering), dose-response: reduce the aggregation of the enzyme in a dose-responsive manner

## Ac-RLLTLASRRPRLLTLASRR-NH2 [TEM4.0]
E. coli strain UZ_TEM104 [2]
  MIC peptide: 100 µg/mL
E. coli strain UZ_TEM104 [1]; in presence of additive at 50 μg/mL
  MIC penicillin: 1600 µg/mL

## RLTAFLRQRRPRLTAFLHNRR (non-natural molecule) [TEM3.3]
E. coli TEM-104
  synergy with penicillin G (FICI): synergy
E. coli SHV-11
  synergy with penicillin G (FICI): synergy
[3]
  enrichment of the TEM protein in inclusion bodies (western blot): clear enrichment of the TEM protein in IBs
[4]
  accumulation of the SHV enzyme in inclusion bodies (western blot): accumulates in IBs

## RLTAFLRQRRPRLTAFLRQRR (non-natural molecule) [TEM3.1]
E. coli SHV-11
  synergy with penicillin G (FICI): clear synergy
[3]
  enrichment of the TEM protein in inclusion bodies (western blot): not
[4]
  accumulation of the SHV enzyme in inclusion bodies (western blot): accumulates in IBs
